Assay [1] in a line: Evaluation of kokumi taste, quantitative sensory evaluation test. Also noted: species or system human. The note with it: for Kokumi Intensity Aftertaste / Kokumi Intensity First-middle taste: score control 0, strong 3, very strong 5, n=4. The method, then:
On the compounds in which the calcium receptor activating action was found (sodium salts of Compound Nos. 1, 7 and 21), the intensity of kokumi-imparting activity was examined by a quantitative sensory evaluation test. In 5 ml of distilled water was dissolved 525 mg of Compound No. 1 described in REFERENCE EXAMPLE I and of REFERENCE […] EXAMPLE I. By adding 16.4 ml of 0.1M sodium hydroxide solution to the resulting solution, the solution was adjusted to pH 6.5 to 7 followed by freeze-drying. The resulting Na salt was provided for use. In addition, 500 mg of Compound No. 7 described in REFERENCE EXAMPLE I and REFERENCE […] EXAMPLE 7 was suspended in 5 ml of distilled water. To the suspension were sequentially added 1.61 ml of 1M sodium hydroxide and 0.8 ml of 2M hydrochloric acid at 0° C. The solid precipitated was taken out by filtration and dried under reduced pressure at 40° C. to give 426 mg of Reference Compound No. 7. After the solid substance obtained was suspended in 10 ml of distilled water, 1.2 ml of 1M sodium hydroxide was added to the suspension and freeze-dried. The resulting Na salt was provided for use. Reference Compound No. 21 was used in the form of the Na salt, which was prepared from Compound No. 21 described in REFERENCE EXAMPLE I and REFERENCE […] EXAMPLE 21 by the same procedures as described above.
A quantitative sensory evaluation test was conducted as follows. The intensity of kokumi-imparting activity was examined when 0.000001 to 0.1 g/dl of the compound as a sample (No. 1—Na salt) was mixed with distilled water containing sodium glutamate (0.05 g/dl), inosine monophosphate (0.05 g/dl) and sodium chloride (0.5 g/dl). As a reference, γGlu-Cys-Gly and γGlu-Val-Gly were used, each of which is a known kokumi-imparting component. The sample that became acidic to an additive-free control after dissolving the sample was used by adjusting its pH within ±0.2 with NaOH based on the additive-free control. Sensory scoring was defined as a control: 0, strong: 3 and very strong: 5, and performed in n=4. Meanwhile, a “first-middle taste” is intended to mean the taste combining the first taste and middle taste.

Assay [2] concerns rat large intestine loop. Briefly: Effect of CaSR agonist on water absorption in rat large intestine loop method (PGE2-treated). The assay is classed as in vivo. The note with it: male SD (IGS) rat, PGE2 i.p., compound in Tyrode solution in the loop, 1 hour. The protocol: Under pentobarbital anesthesia the cecum and large intestine were isolated from the abdomen of a male SD (IGS) rat, and a large intestine loop was prepared by ligating a point 5 cm just below the cecum. Immediately after preparing the loop, PGE2 (4 μg/ml/kg, SIGMA) was intraperitoneally administered. Thirty minutes later, 2 ml of Tyrode solution (136.9 mM NaCl, 2.7 mM KCl, 1.8 mM CaCl2.2H2O, 1.04 mM MgCl2.6H2O, 0.04 mM NaH2PO4.2H2O, 5.55 mM glucose and 11.9 mM NaHCO3) was poured into the loop prepared. An hour later, the weight of the loop, the weight when the liquid was removed from the loop and the loop area were measured to calculate the weight per unit area of the liquid that remains in the loop.
A test compound was dissolved in Tyrode solution (adjusted to pH 6.5 to 7.5), which was provided for tests.
The remaining liquid weight per unit area (g/cm^2) was calculated by the following equation. Remaining liquid weight per unit area (g/cm^2)=(loop weight−loop weight when the liquid was removed from the loop)/loop area
Water absorption was evaluated by calculating the inhibition ratio by the following equation. Inhibition ratio(%)=100−(remaining liquid weight per unit area with a drug−basic average remaining liquid weight per unit area)/(average remaining liquid weight per unit area of vehicle−basic average remaining liquid weight per unit area)×100 […]

Where a name gives a salt, the structure may show the parent alone. Numbered stars: 1 amine (or outer) side, 2 acyl side, 3 side chain; on linkers, the order of the positions; unused ones are H or OH. Square brackets hold non-standard residues; d marks the D form. Ends that are not written are not given here. γGlu = O=C(O)[C@H](CCC(=O)[*:2])N[*:1]

For the molecule `N[C@@H](CCC(=O)Nc1cccc(S(=O)(=O)O)c1)C(=O)O` [No. 1-Na salt, N^5-(3-sulfophenyl)-L-glutamine], the kokumi-imparting activity result in assay [1] (0.000001 to 0.1 g/dl in water with sodium glutamate 0.05, inosine monophosphate 0.05, sodium chloride 0.5 g/dl) is given as “widely found in the above concentrations”. Moreover, the “Kokumi Intensity Aftertaste” value is 1.0 in assay [1] (0.00001 g/dl); 2.0 in assay [1] (0.0001 g/dl); 3.0 in assay [1] (0.0005 g/dl); 3.6 in assay [1] (0.001 g/dl); 5.0 in assay [1] (0.01 g/dl). For the same molecule, the “Kokumi Intensity First-middle taste” value in assay [1] (0.00001 g/dl) is given as 0.7; in assay [1] (0.0001 g/dl), 1.8; in assay [1] (0.0005 g/dl) it was 2.6; in assay [1] (0.001 g/dl) it was 3.2; in assay [1] (0.01 g/dl) it was 5.0. Besides, the “Comments on Sensory Evaluation” value is given as “There was harmony accompanied” in assay [1] (0.0001 g/dl) and “All tastes were strong” in assay [1] (0.01 g/dl).
In the case of `N[C@@H](CCC(=O)Nc1cc(Cl)cc(S(=O)(=O)O)c1O)C(=O)O` [No. 7-Na salt, N^5-(5-chloro-2-hydroxy-3-sulfophenyl)-L-glutamine], in assay [1] (0.00005 g/dl), the “Comments on Sensory Evaluation” value is listed as “Thickness mainly in the middle taste”, the “Kokumi Intensity Aftertaste” value is given as 2.5 and the “Kokumi Intensity First-middle taste” value was found to be 2.2. Moreover, in assay [1] (0.0001 g/dl), the “Kokumi Intensity Aftertaste” value came to 3.2 and the “Kokumi Intensity First-middle taste” value was 2.5. Moreover, in assay [1] (0.0005 g/dl), the “Comments on Sensory Evaluation” value was “Rich thickness in the middle taste”, the “Kokumi Intensity Aftertaste” value came out at 4.0 and the “Kokumi Intensity First-middle taste” value amounted to 3.3.
For the molecule `Cc1c(Cl)cc(NC(=O)CC[C@H](N)C(=O)O)cc1S(=O)(=O)O` [No. 21-Na salt, N^5-(3-chloro-4-methyl-5-sulfophenyl)-L-glutamine], the “Kokumi Intensity Aftertaste” value in assay [1] (0.0002 g/dl) is 2.0; in assay [1] (0.0005 g/dl), 3.1; in assay [1] (0.001 g/dl) it was 3.7. Also, the “Kokumi Intensity First-middle taste” value in assay [1] (0.0002 g/dl) is on record as 1.5; in assay [1] (0.0005 g/dl) it was 2.6; in assay [1] (0.001 g/dl) it was 3.1.
On to `N[C@@H](CCC(=O)Nc1cccc(S(=O)(=O)O)c1)C(=O)O` [Reference Compound No. 1, N^5-(3-sulfophenyl)-L-glutamine], for which the Water absorption result in assay [2] was “promoted dose-dependently”.
As for `N[C@@H](CCC(=O)Nc1cc(Cl)cc(S(=O)(=O)O)c1O)C(=O)O` [Reference Compound No. 7, N^5-(5-chloro-2-hydroxy-3-sulfophenyl)-L-glutamine], in assay [2], the Water absorption entry is recorded as “promoted in a dose-dependent manner”.
For [γGlu]-Cys-Gly, in assay [1] (0.01 g/dl), the “Comments on Sensory Evaluation” value is “Richness, thickness and continuity”; the “Kokumi Intensity Aftertaste” value is on record as 3.0; the “Kokumi Intensity First-middle taste” value came out at 3.0.
[γGlu]-Val-Gly: in assay [1] (0.001 g/dl), the “Comments on Sensory Evaluation” value is “Smoothness, richness and growth”; the “Kokumi Intensity Aftertaste” value stood at 3.0; the “Kokumi Intensity First-middle taste” value came out at 2.5. Moreover, in assay [1] (0.005 g/dl), the “Comments on Sensory Evaluation” value was “Smoothness, richness and growth”; the “Kokumi Intensity Aftertaste” value was 4.0; the “Kokumi Intensity First-middle taste” value is recorded as 3.5.

The values above are taken from patent US9000208B2, “Glutamate derivatives or salts thereof” (Ajinomoto Co., Inc., priority 2010, dated 2015).
